The record followed here is patent US20250313546A1, “NUCLEIC ACID BINDERS” (UNIVERSITY OF STRATHCLYDE, priority 2022, published 2025).

Values after ≈ are worked out from the molar mass of the structure shown.

Common to all, as to assay: Antibacterial MIC, broth microdilution (CLSI)
Holding throughout (type): cell-based

Experiment [1] relates to Staphylococcus aureus (ATCC 43300). Particulars: Staphylococcus aureus, ATCC43300; read-out: MIC80 S. aureus.
Experiment [2] relates to Enterococcus faecalis (ATCC 51299). As to conditions: Enterococcus faecalis, ATCC51299; read-out: MIC80 E. faecalis.
For experiment [3], the system named is Escherichia coli (ATCC 25922). As to conditions: Escherichia coli, ATCC25922; read-out: MIC80 E. coli.

For the compound `CC/N=C(/CCNC(=O)c1cc(NC(=O)c2cc(NC(=O)c3ccc(/C=C/c4ccc(N(C)C)cc4)nc3)cn2C)cn1C)NCC` [Ia51, 6-((E)-4-(dimethylamino)styryl)-N-(5-((5-(((Z)-3-(ethylamino)-3-(ethylimino)propyl)carbamoyl)-1-methyl-1H-pyrrol-3-yl)carbamoyl)-1-methyl-1H-pyrrol-3-yl)nicotinamide], the MIC80 in experiment [1] is 25 to 100 µM (≈ 15.9 to 63.8 µg/mL); in experiment [2], 25 to 100 µM (≈ 15.9 to 63.8 µg/mL); in experiment [3], over 100 µM.
Regarding `[H]/N=C(\CCNC(=O)c1cc(NC(=O)c2cc(NC(=O)c3ccc(C=Cc4ccc(N(C)C)cc4)nc3)cn2C)cn1C)NCCN1CCSCC1` [Ia52, (E)-6-(4-(dimethylamino)styryl)-N-(5-((5-((3-imino-3-((2-thiomorpholinoethyl)amino)propyl)carbamoyl)-1-methyl-1H-pyrrol-3-yl)carbamoyl)-1-methyl-1H-pyrrol-3-yl)nicotinamide], the MIC80 in experiment [1] was 5 to 25 µM (≈ 3.55 to 17.8 µg/mL); in experiment [2] it was over 100 µM; in experiment [3], over 100 µM.
As to `C/N=C(\CCNC(=O)c1cc(NC(=O)c2cc(NC(=O)c3ccc(/C=C/c4cccc(OC)c4)cc3)cn2C)cn1C)NC` [Ia53, 4-(4-((E)-3-methoxystyryl)benzamido)-1-methyl-N-(1-methyl-5-(((E)-3-(methylamino)-3-(methylimino)propyl)carbamoyl)-1H-pyrrol-3-yl)-1H-pyrrole-2-carboxamide], the results for the MIC80 in experiment [1], in experiment [2] and in experiment [3] were under 5 µM, 5 to 25 µM (≈ 2.98 to 14.9 µg/mL) and over 100 µM, respectively.
Turning to `C/N=C(\CCNC(=O)c1cc(NC(=O)c2cc(NC(=O)c3ccc(/C=C/c4ccc(OC)cc4)nc3)cn2C)cn1C)NC` [Ia54, 6-((E)-4-methoxystyryl)-N-(1-methyl-5-((1-methyl-5-(((E)-3-(methylamino)-3-(methylimino)propyl)carbamoyl)-1H-pyrrol-3-yl)carbamoyl)-1H-pyrrol-3-yl)nicotinamide], the MIC80 in experiment [1] is 5 to 25 µM (≈ 2.98 to 14.9 µg/mL); in experiment [2] it was 5 to 25 µM (≈ 2.98 to 14.9 µg/mL); in experiment [3], over 100 µM.
Consider `CNC(=N)CCNC(=O)c1cc(NC(=O)c2cc(NC(=O)c3ccc(/C=C/c4ccc(OC)cc4)nc3)cn2C)cn1C` [Ia55, (E)-N-(5-((5-((3-imino-3-(methylamino)propyl)carbamoyl)-1-methyl-1H-pyrrol-3-yl)carbamoyl)-1-methyl-1H-pyrrol-3-yl)-6-(4-methoxystyryl)nicotinamide], for which the MIC80 in experiment [1] is 5 to 25 µM (≈ 2.91 to 14.6 µg/mL); in experiment [2], 5 to 25 µM (≈ 2.91 to 14.6 µg/mL); in experiment [3], over 100 µM.
Take `CNC(=N)CCNC(=O)c1cc(NC(=O)c2cc(NC(=O)c3ccc(/C=C/c4cccc(OC)c4)cc3)cn2C)cn1C` [Ia56, (E)-N-(3-imino-3-(methylamino)propyl)-4-(4-(4-(3-methoxystyryl)benzamido)-1-methyl-1H-pyrrole-2-carboxamido)-1-methyl-1H-pyrrole-2-carboxamide]: the figures for the MIC80 in experiment [1], in experiment [2] and in experiment [3] were 5 to 25 µM (≈ 2.91 to 14.5 µg/mL), 5 to 25 µM (≈ 2.91 to 14.5 µg/mL) and over 100 µM, respectively.
As to `Cn1cc(NC(=O)c2cc(NC(=O)c3ccc(/C=C/c4cnc5ccccc5c4)cc3)cn2C)cc1C(=O)NCC/C(=N/CC(F)F)NCC(F)F` [Ia57, N—((Z)-3-((2,2-difluoroethyl)amino)-3-((2,2-difluoroethyl)imino)propyl)-1-methyl-4-(1-methyl-4-(4-((E)-2-(quinolin-3-yl)vinyl)benzamido)-1H-pyrrole-2-carboxamido)-1H-pyrrole-2-carboxamide], the MIC80 is under 5 µM in experiment [1], 5 to 25 µM (≈ 3.58 to 17.9 µg/mL) in experiment [2] and over 100 µM in experiment [3].
The corresponding values for `COCCNC(=N)CCNC(=O)c1cc(NC(=O)c2cc(NC(=O)c3ccc(/C=C/c4cnc5ccccc5c4)cc3)cn2C)cn1C` [Ia58, (E)-N-(3-imino-3-((2-methoxyethyl)amino)propyl)-1-methyl-4-(1-methyl-4-(4-(2-(quinolin-3-yl)vinyl)benzamido)-1H-pyrrole-2-carboxamido)-1H-pyrrole-2-carboxamide] are under 5 µM, 5 to 25 µM (≈ 3.23 to 16.2 µg/mL) and over 100 µM.
The corresponding values for `C/N=C(/CCNC(=O)c1cc(NC(=O)c2cc(NC(=O)c3ccc(/C=C/c4ccc(F)c(OC)c4)nc3)cn2C)cn1C)NC` [Ia59, 6-((E)-4-fluoro-3-methoxystyryl)-N-(1-methyl-5-((1-methyl-5-(((Z)-3-(methylamino)-3-(methylimino)propyl)carbamoyl)-1H-pyrrol-3-yl)carbamoyl)-1H-pyrrol-3-yl)nicotinamide] are under 5 µM, over 100 µM and over 100 µM.
As to `C/N=C(/CCNC(=O)c1cc(NC(=O)c2cc(NC(=O)c3ccc(/C=C/c4cncnc4)cc3)cn2C)cn1C)NC` [Ia60, 1-methyl-4-(1-methyl-4-(4-((E)-2-(pyrimidin-5-yl)vinyl)benzamido)-1H-pyrrole-2-carboxamido)-N—((Z)-3-(methylamino)-3-(methylimino)propyl)-1H-pyrrole-2-carboxamide], the results for the MIC80 in experiment [1], in experiment [2] and in experiment [3] were under 5 µM, 5 to 25 µM (≈ 2.84 to 14.2 µg/mL) and over 100 µM, respectively.
With `C/N=C(/CCNC(=O)c1cc(NC(=O)c2cc(NC(=O)c3ccc(/C=C/c4cccc(C(F)(F)F)c4)nc3)cn2C)cn1C)NC` [Ia61, N-(1-methyl-5-((1-methyl-5-(((Z)-3-(methylamino)-3-(methylimino)propyl)carbamoyl)-1H-pyrrol-3-yl)carbamoyl)-1H-pyrrol-3-yl)-6-((E)-3-(trifluoromethyl)styryl)nicotinamide], the MIC80 is 5 to 25 µM (≈ 3.17 to 15.9 µg/mL) in experiment [1], 5 to 25 µM (≈ 3.17 to 15.9 µg/mL) in experiment [2] and over 100 µM in experiment [3].
As for `Cn1cc(NC(=O)c2cc(NC(=O)c3ccc(/C=C/c4cnc5ccccc5c4)cc3)cn2C)cc1C(=O)NCCC(=N)NCC(F)F` [Ia62, (E)-N-(3-((2,2-difluoroethyl)amino)-3-iminopropyl)-1-methyl-4-(1-methyl-4-(4-(2-(quinolin-3-yl)vinyl)benzamido)-1H-pyrrole-2-carboxamido)-1H-pyrrole-2-carboxamide], the figures for the MIC80 in experiment [1], in experiment [2] and in experiment [3] were under 5 µM, under 5 µM and over 100 µM, respectively.
Take `CN(C)c1ccc(/C=C/c2ccc(C(=O)Nc3cc(C(=O)Nc4cc(C(=O)NCCC(=N)NCC(F)F)n(C)c4)n(C)c3)cn2)cc1` [Ia63, (E)-N-(5-((5-((3-((2,2-difluoroethyl)amino)-3-iminopropyl)carbamoyl)-1-methyl-1H-pyrrol-3-yl)carbamoyl)-1-methyl-1H-pyrrol-3-yl)-6-(4-(dimethylamino)styryl)nicotinamide]: the MIC80 in experiment [1] was under 5 µM; in experiment [2], 25 to 100 µM (≈ 16.1 to 64.6 µg/mL); in experiment [3] it was over 100 µM.
The corresponding values for `[H]/N=C(\CCNC(=O)c1cc(NC(=O)c2cc(NC(=O)c3ccc(C=Cc4ccc(N(C)C)cc4)nc3)cn2C)cn1C)N1CCSCC1` [Ib9, (E)-6-(4-(dimethylamino)styryl)-N-(5-((5-((3-imino-3-thiomorpholinopropyl)carbamoyl)-1-methyl-1H-pyrrol-3-yl)carbamoyl)-1-methyl-1H-pyrrol-3-yl)nicotinamide] are under 5 µM, 25 to 100 µM (≈ 16.7 to 66.8 µg/mL) and over 100 µM.
Take `[H]/N=C(\CCNC(=O)c1cc(NC(=O)c2cc(NC(=O)c3ccc(C=Cc4ccc(N(C)C)cc4)nc3)cn2C)cn1C)N1CCN(C)CC1` [Ib10, (E)-6-(4-(dimethylamino)styryl)-N-(5-((5-((3-imino-3-(4-methylpiperazin-1-yl)propyl)carbamoyl)-1-methyl-1H-pyrrol-3-yl)carbamoyl)-1-methyl-1H-pyrrol-3-yl)nicotinamide]: the MIC80 is 5 to 25 µM (≈ 3.32 to 16.6 µg/mL) in experiment [1], over 100 µM in experiment [2] and over 100 µM in experiment [3].
